Experiments:
Assay type in all cases: in vivo
[1] = tested on: Echinochloa crus-galli var. formosensis; test: Test Example 1: herbicidal effect test by soil application in paddy rice; conditions: Echinochloa crus-galli, soil, 336 h; 120 g active ingredient per 10 ares; applied immediately after sowing, flooded pots; 14 days after application; read-out: weed inhibition rate
Method in brief: (§1)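 Treatment: 120 g active ingredient per 10 ares as a water-diluted emulsifiable concentrate, dropped onto flooded pots immediately after sowing. Thirty seeds per species went 0–1 cm into puddled paddy soil with 16:16:16 fertilizer, with ~3 cm flooding maintained in a glass greenhouse.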

Scirpus juncoides [2] = test: as above; conditions: Schoenoplectiella juncoides, soil, 336 h; 120 g active ingredient per 10 ares; applied immediately after sowing, flooded pots; 14 days after application; read-out: weed inhibition rate
Method in brief: as §1

[3] = tested on: Echinochloa crus-galli var. formosensis; test: Test Example 2: herbicidal effect test by application during growth period of paddy rice; conditions: Echinochloa crus-galli; 120 g per 10 ares; applied seven days after sowing, flooded pots; 14 days after application; read-out: weed inhibition rate
Method in brief: (§2)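 Paddy soil in flooded pots (water depth about 3 cm) was sown with weed seeds and kept in a glass greenhouse. Seven days after sowing, a diluted emulsifiable concentrate was applied by dropper at 120 g active ingredient per 10 ares. Weed inhibition was evaluated 14 days after application, in duplicate.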

Scirpus juncoides [4] = test: as above; conditions: Schoenoplectiella juncoides; 120 g per 10 ares; applied seven days after sowing, flooded pots; 14 days after application; read-out: weed inhibition rate
Method in brief: as §2

Digitaria ciliaris [5] = test: Test Example 3: herbicidal effect test by soil application in upland field; conditions: Digitaria ciliaris, 120 g per 10 ares, sprayed one day after sowing, 14 days after application, read-out: weed inhibition rate
Method in brief: (§3)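 Weed inhibition (%) was assessed 14 days after treatment, in duplicate per concentration group. Seeds had been mixed into the upper 1 cm of upland alluvial loam, and the soil surface was sprayed one day later with the diluted emulsifiable concentrate at 120 g active ingredient per 10 ares.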

Echinochloa crus-galli [6] = test: as above; conditions: Echinochloa crus-galli, 120 g per 10 ares, sprayed one day after sowing, 14 days after application, read-out: weed inhibition rate
Method in brief: as §3

Digitaria ciliaris [7] = test: Test Example 4: herbicidal effect test by stem and leaf treatment in upland field; conditions: Digitaria ciliaris; 120 g per 10 ares; sprayed seven days after sowing, upland soil; 14 days after application; read-out: weed inhibition rate
Echinochloa crus-galli [8] = test: as above; conditions: Echinochloa crus-galli; 120 g per 10 ares; sprayed seven days after sowing, upland soil; 14 days after application; read-out: weed inhibition rate
[9] = tested on: Echinochloa crus-galli var. formosensis; test: Test Example 5: herbicidal effect test by soil application in paddy rice (low dose); conditions: Echinochloa crus-galli, soil, 336 h; 7.5 g per 10 ares; applied immediately after sowing, flooded pots; 14 days after application; read-out: weed inhibition rate
Method in brief: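 Paddy-soil pots, weeds sown 0–1 cm deep and flooded to about 3 cm in a greenhouse. Emulsifiable concentrate diluted in water and dropped in right after sowing at 7.5 g active ingredient per 10 ares. Duplicates; effect scored 14 days after application.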

[10] = tested on: Echinochloa crus-galli var. formosensis; test: Test Example 6: herbicidal effect test by application during growth period of paddy rice (low dose); conditions: Echinochloa crus-galli; 7.5 g per 10 ares; applied seven days after sowing, flooded pots; 14 days after application; read-out: weed inhibition rate
Method in brief: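 Puddled, fertilised paddy soil was sown with 30 seeds per species and flooded to about 3 cm. After 7 days in a glass greenhouse, the diluted emulsifiable concentrate went into the water by dropper at 7.5 g/10 a. Effect scored at 14 days.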

Digitaria ciliaris [11] = test: Test Example 7: herbicidal effect test by soil application in upland field (low dose); conditions: Digitaria ciliaris, 7.5 g per 10 ares, sprayed one day after sowing, 14 days after application, read-out: weed inhibition rate
Method in brief: (§4)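 Upland alluvial loam pots, seeds mixed into top 1 cm of soil; one day after sowing, diluted emulsifiable concentrate sprayed on soil at 100 L/10 a, giving 7.5 g active ingredient/10 a. Duplicate pots; weed inhibition rate (%) scored 14 days after application.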

Echinochloa crus-galli [12] = test: as above; conditions: Echinochloa crus-galli, 7.5 g per 10 ares, sprayed one day after sowing, 14 days after application, read-out: weed inhibition rate
Method in brief: as §4

Digitaria ciliaris [13] = test: Test Example 8: herbicidal effect test by stem and leaf treatment in upland field (low dose); conditions: Digitaria ciliaris; 7.5 g per 10 ares; sprayed seven days after sowing, upland soil; 14 days after application; read-out: weed inhibition rate
Echinochloa crus-galli [14] = test: as above; conditions: Echinochloa crus-galli; 7.5 g per 10 ares; sprayed seven days after sowing, upland soil; 14 days after application; read-out: weed inhibition rate

CC#CCOC1C[C@]2(C(C)C)O[C@@]1(C)C[C@@H]2OC (mixture of isomers) [1-801, (1R,2S,4S,SR)-5-but-2-ynoxy-1-isopropyl-2-methoxy-4-methyl-7-oxabicyclo[2.2.1]heptane]
≥ 80%: pest or weed control at 1200 g/ha [1] | pest or weed control at 1200 g/ha (Scirpus juncoides [2]) | inhibition at 1200 g/ha [3] | inhibition at 1200 g/ha (Scirpus juncoides [4]) | inhibition at 1200 g/ha (Digitaria ciliaris [5]) | inhibition at 1200 g/ha (Echinochloa crus-galli [6]) | inhibition at 1200 g/ha (Digitaria ciliaris [7]) | inhibition at 1200 g/ha (Echinochloa crus-galli [8]) | inhibition at 75 g/ha [9] | inhibition at 75 g/ha [10] | inhibition at 75 g/ha (Digitaria ciliaris [11]) | inhibition at 75 g/ha (Echinochloa crus-galli [12]) | inhibition at 75 g/ha (Digitaria ciliaris [13]) | inhibition at 75 g/ha (Echinochloa crus-galli [14])

CC#CCO[C@@H]1C[C@]2(C(C)C)O[C@@]1(C)C[C@@H]2Cl [1-614, (1R,2S,4S,5R)-5-but-2-ynoxy-2-chloro-1-isopropyl-4-methyl-7-oxabicyclo[2.2.1]heptane]
≥ 80%: pest or weed control at 1200 g/ha [1] | pest or weed control at 1200 g/ha (Scirpus juncoides [2]) | inhibition at 1200 g/ha [3] | inhibition at 1200 g/ha (Scirpus juncoides [4]) | inhibition at 1200 g/ha (Digitaria ciliaris [5]) | inhibition at 1200 g/ha (Echinochloa crus-galli [6]) | inhibition at 1200 g/ha (Digitaria ciliaris [7]) | inhibition at 1200 g/ha (Echinochloa crus-galli [8]) | inhibition at 75 g/ha [9] | inhibition at 75 g/ha [10] | inhibition at 75 g/ha (Digitaria ciliaris [11]) | inhibition at 75 g/ha (Echinochloa crus-galli [12]) | inhibition at 75 g/ha (Digitaria ciliaris [13]) | inhibition at 75 g/ha (Echinochloa crus-galli [14])

CC(C)[C@@]12C[C@H](OCc3c(F)cccc3F)[C@@](C)(C[C@H]1I)O2 [1-1119, (1R,2S,4S,5R)-2-[(2,6-difluorophenyl)methoxy]-5-iodo-1-methyl-4-isopropyl-7-oxabicyclo[2.2.1]heptane]
≥ 80%: pest or weed control at 1200 g/ha [1] | pest or weed control at 1200 g/ha (Scirpus juncoides [2]) | inhibition at 1200 g/ha [3] | inhibition at 1200 g/ha (Scirpus juncoides [4]) | inhibition at 1200 g/ha (Digitaria ciliaris [5]) | inhibition at 1200 g/ha (Echinochloa crus-galli [6]) | inhibition at 1200 g/ha (Digitaria ciliaris [7]) | inhibition at 1200 g/ha (Echinochloa crus-galli [8]) | inhibition at 75 g/ha [9] | inhibition at 75 g/ha [10] | inhibition at 75 g/ha (Digitaria ciliaris [11]) | inhibition at 75 g/ha (Echinochloa crus-galli [12]) | inhibition at 75 g/ha (Digitaria ciliaris [13]) | inhibition at 75 g/ha (Echinochloa crus-galli [14])

CC(C)C12CC(OCc3ccccc3)C(C)(CC1I)O2 (centres unmarked) [1-1408, 5-iodo-1-methyl-2-phenylmethoxy-4-isopropyl-7-oxabicyclo[2.2.1]heptane]
≥ 80%: pest or weed control at 1200 g/ha [1] | pest or weed control at 1200 g/ha (Scirpus juncoides [2]) | inhibition at 1200 g/ha [3] | inhibition at 1200 g/ha (Scirpus juncoides [4]) | inhibition at 1200 g/ha (Digitaria ciliaris [5]) | inhibition at 1200 g/ha (Echinochloa crus-galli [6]) | inhibition at 1200 g/ha (Digitaria ciliaris [7]) | inhibition at 1200 g/ha (Echinochloa crus-galli [8]) | inhibition at 75 g/ha [9] | inhibition at 75 g/ha [10] | inhibition at 75 g/ha (Digitaria ciliaris [11]) | inhibition at 75 g/ha (Echinochloa crus-galli [12]) | inhibition at 75 g/ha (Digitaria ciliaris [13]) | inhibition at 75 g/ha (Echinochloa crus-galli [14])

Cc1cccc(C)c1CO[C@@H]1C[C@]2(C(C)C)O[C@@]1(C)C[C@@H]2I [1-777, (1R,2S,4S,5R)-5-[(2,6-dimethylphenyl)methoxy]-2-iodo-1-isopropyl-4-methyl-7-oxabicyclo[2.2.1]heptane]
≥ 80%: pest or weed control at 1200 g/ha [1] | pest or weed control at 1200 g/ha (Scirpus juncoides [2]) | inhibition at 1200 g/ha [3] | inhibition at 1200 g/ha (Scirpus juncoides [4]) | inhibition at 1200 g/ha (Digitaria ciliaris [5]) | inhibition at 1200 g/ha (Echinochloa crus-galli [6]) | inhibition at 1200 g/ha (Digitaria ciliaris [7]) | inhibition at 1200 g/ha (Echinochloa crus-galli [8]) | inhibition at 75 g/ha [9] | inhibition at 75 g/ha [10] | inhibition at 75 g/ha (Digitaria ciliaris [11]) | inhibition at 75 g/ha (Echinochloa crus-galli [12]) | inhibition at 75 g/ha (Digitaria ciliaris [13]) | inhibition at 75 g/ha (Echinochloa crus-galli [14])

CC(C)C12C=CC(C)(O1)C(OCc1cccs1)C2 (centres unmarked) [3-756, 1-isopropyl-4-methyl-5-(2-thienylmethoxy)-7-oxabicyclo[2.2.1]hept-2-ene]
≥ 80%: pest or weed control at 1200 g/ha [1] | pest or weed control at 1200 g/ha (Scirpus juncoides [2]) | inhibition at 1200 g/ha [3] | inhibition at 1200 g/ha (Scirpus juncoides [4]) | inhibition at 1200 g/ha (Digitaria ciliaris [5]) | inhibition at 1200 g/ha (Echinochloa crus-galli [6]) | inhibition at 1200 g/ha (Digitaria ciliaris [7]) | inhibition at 1200 g/ha (Echinochloa crus-galli [8]) | inhibition at 75 g/ha [9] | inhibition at 75 g/ha [10] | inhibition at 75 g/ha (Digitaria ciliaris [11]) | inhibition at 75 g/ha (Echinochloa crus-galli [12]) | inhibition at 75 g/ha (Digitaria ciliaris [13]) | inhibition at 75 g/ha (Echinochloa crus-galli [14])

Cc1cccc(C)c1COC1CC2(C(C)C)OC1(C)CC2Cl (centres unmarked) [1-1610, 5-chloro-2-[(2,6-dimethylphenyl)methoxy]-1-methyl-4-isopropyl-7-oxabicyclo[2.2.1]heptane]
≥ 80%: pest or weed control at 1200 g/ha [1] | pest or weed control at 1200 g/ha (Scirpus juncoides [2]) | inhibition at 1200 g/ha [3] | inhibition at 1200 g/ha (Scirpus juncoides [4]) | inhibition at 1200 g/ha (Digitaria ciliaris [5]) | inhibition at 1200 g/ha (Echinochloa crus-galli [6]) | inhibition at 1200 g/ha (Digitaria ciliaris [7]) | inhibition at 1200 g/ha (Echinochloa crus-galli [8]) | inhibition at 75 g/ha [9] | inhibition at 75 g/ha [10] | inhibition at 75 g/ha (Digitaria ciliaris [11]) | inhibition at 75 g/ha (Echinochloa crus-galli [12]) | inhibition at 75 g/ha (Digitaria ciliaris [13]) | inhibition at 75 g/ha (Echinochloa crus-galli [14])

CC(C)[C@]12C[C@@H](OCc3c(F)cccc3Br)[C@](C)(C[C@@H]1Cl)O2 [1-1613, (1R,2S,4S,5R)-5-[(2-bromo-6-fluoro-phenyl)methoxy]-2-chloro-1-isopropyl-4-methyl-7-oxabicyclo[2.2.1]heptane]
≥ 80%: pest or weed control at 1200 g/ha [1] | pest or weed control at 1200 g/ha (Scirpus juncoides [2]) | inhibition at 1200 g/ha [3] | inhibition at 1200 g/ha (Scirpus juncoides [4]) | inhibition at 1200 g/ha (Digitaria ciliaris [5]) | inhibition at 1200 g/ha (Echinochloa crus-galli [6]) | inhibition at 1200 g/ha (Digitaria ciliaris [7]) | inhibition at 1200 g/ha (Echinochloa crus-galli [8]) | inhibition at 75 g/ha [9] | inhibition at 75 g/ha [10] | inhibition at 75 g/ha (Digitaria ciliaris [11]) | inhibition at 75 g/ha (Echinochloa crus-galli [12]) | inhibition at 75 g/ha (Digitaria ciliaris [13]) | inhibition at 75 g/ha (Echinochloa crus-galli [14])

CC(C)[C@]12C[C@@H](OCc3ccccc3Cl)[C@](C)(C[C@@H]1Cl)O2 [1-13, (1R,2S,4S,5R)-2-chloro-5-[(2-chlorophenyl)methoxy]-1-isopropyl-4-methyl-7-oxabicyclo[2.2.1]heptane]
≥ 80%: pest or weed control at 1200 g/ha [1] | pest or weed control at 1200 g/ha (Scirpus juncoides [2]) | inhibition at 1200 g/ha [3] | inhibition at 1200 g/ha (Scirpus juncoides [4]) | inhibition at 1200 g/ha (Digitaria ciliaris [5]) | inhibition at 1200 g/ha (Echinochloa crus-galli [6]) | inhibition at 1200 g/ha (Digitaria ciliaris [7]) | inhibition at 1200 g/ha (Echinochloa crus-galli [8]) | inhibition at 75 g/ha [9] | inhibition at 75 g/ha [10] | inhibition at 75 g/ha (Digitaria ciliaris [11]) | inhibition at 75 g/ha (Echinochloa crus-galli [12]) | inhibition at 75 g/ha (Digitaria ciliaris [13]) | inhibition at 75 g/ha (Echinochloa crus-galli [14])

CC(C)[C@]12C[C@@H](OCc3c(F)cccc3Br)[C@](C)(C[C@@H]1I)O2 [1-1614, (1R,2S,4S,5R)-5-[(2-bromo-6-fluoro-phenyl)methoxy]-2-iodo-1-isopropyl-4-methyl-7-oxabicyclo[2.2.1]heptane]
≥ 80%: pest or weed control at 1200 g/ha [1] | pest or weed control at 1200 g/ha (Scirpus juncoides [2]) | inhibition at 1200 g/ha [3] | inhibition at 1200 g/ha (Scirpus juncoides [4]) | inhibition at 1200 g/ha (Digitaria ciliaris [5]) | inhibition at 1200 g/ha (Echinochloa crus-galli [6]) | inhibition at 1200 g/ha (Digitaria ciliaris [7]) | inhibition at 1200 g/ha (Echinochloa crus-galli [8]) | inhibition at 75 g/ha [9] | inhibition at 75 g/ha [10] | inhibition at 75 g/ha (Digitaria ciliaris [11]) | inhibition at 75 g/ha (Echinochloa crus-galli [12]) | inhibition at 75 g/ha (Digitaria ciliaris [13]) | inhibition at 75 g/ha (Echinochloa crus-galli [14])
